Laboratory results taken from patent US20090270594A1, “USE OF THYMOSIN ALPHA 1 FOR THE PREPARATION OF A MEDICAMENT FOR THE PREVENTION AND TREATMENT OF ALLERGIES” (SIGMA-TAU INDUSTRIE FARMACEUTICHE, priority 2006, published 2009).
Where no end group is shown, it is not given here.

Key:
[1] = test system: mice with allergy from OVA; assay: Allergy from OVA (chicken ovalbumin) model in mice; format: in vivo; settings: FIG. 1B
Protocol: (§1) Evaluation of the efficacy of thymosin alpha 1 in two experimental models of allergy. A model consists of inducing an allergic state by administering chicken ovalbumin (OVA) in allergising conditions. The other consists of inducing the allergy from environmental allergens, and namely the spores of the fungus Aspergillus fumigatus.
The induction of the allergic pathology due to Aspergillus (called ABPA, Allergic Bronchopulmonary Aspergillosis) and to OVA was carried out as described in table 1 (Montagnoli C, Fallarino F, Gaziano R, Bozza S, Bellocchio S, Zelante T, Kurup W P, Pitzurra L, Puccetti P, Romani L. Immunity and tolerance to Aspergillus involve functionally distinct regulatory T cells and tryptophan catabolism. J. Immunol. 2006, 176:1712-1723). The mice received an intraperitoneal (i.p.) and subcutaneous (s.c.) injection of 5 μg of A. fumigatus culture filter (CCFA) dissolved in an incomplete Freund adjuvant (Sigma) followed by two consecutive intranasal injections (one week apart) of 20 μg CCFA. […] The mice were analysed for inflammation and allergy parameters a week later. […]
(§2) The collagen levels in the lungs were determined as described (Montagnoli C, Fallarino F, Gaziano R, Bozza S, Bellocchio S, Zelante T, Kurup WP, Pitzurra L, Puccetti P, Romani L. Immunity and tolerance to Aspergillus involve functionally distinct regulatory T cells and tryptophan catabolism. J. Immunol. 2006, 176:1712-1723). The concentrations of hydroxyproline were calculated by means of a standard hydroxyproline curve (zero to 100 μg/ml).
IgE determination in the serum. Total IgE in the serum samples was determined by enzyme-linked immunosorbent assay (Montagnoli C, Fallarino F, Gaziano R, Bozza S, Bellocchio S, Zelante T, Kurup WP, Ptzurra L, Puccetti P, Romani L. Immunity and tolerance to Aspergillus involve functionally distinct regulatory T cells and tryptophan catabolism. J. Immunol. 2006, 176:1712-1723 in the serum samples was measured by enzyme-linked immunosorbent assay). […]

[2] = test system: mice with ABPA (allergy to Aspergillus fumigatus); assay: Allergic Bronchopulmonary Aspergillosis (ABPA) allergy model in mice; format: in vivo
Protocol: as §1
The induction of the allergic pathology due to Aspergillus (called ABPA, Allergic Bronchopulmonary Aspergillosis) and to OVA was carried out as described in table 1 (Montagnoli C, Fallarino F, Gaziano R, Bozza S, Bellocchio S, Zelante T, Kurup W P, Pitzurra L, Puccetti P, Romani L. Immunity and tolerance to Aspergillus involve functionally distinct regulatory T cells and tryptophan catabolism. J. Immunol. 2006, 176:1712-1723). The mice received an intraperitoneal (i.p.) and subcutaneous (s.c.) injection of 5 μg of A. fumigatus culture filter (CCFA) dissolved in an incomplete Freund adjuvant (Sigma) followed by two consecutive intranasal injections (one week apart) of 20 μg CCFA. One week after the last intranasal contact, the mice received 10^7 Aspergillus conidia intratracheally (i.t.) […]. The mice received 10 μg of OVA via i.p./s.c. on day 0, followed by two consecutive intranasal injections (one week apart) of 10 μg of OVA (chicken OVA grade VI; Sigma-Aldrich) together with 1 mg of Al(OH)3 (Alum Inject; Pierce, Rockford, Ill.) as adjuvant dissolved in a sterile saline solution. The mice were analysed for inflammation and allergy parameters a week later. For the histological analysis, sections (from 3 to 4 μm) of tissues immersed in paraffin were coloured with periodical Schiff acid (PAS) to evaluate the general morphology. The lung sections coloured with PAS were examined at 50, 200 and 400 enlargements to assess the “Globet” type cells typical of the allergy.
The differential total and total lung cell counts were carried out by colouring the lung of allergic mice with May-Grünwald reagents (Giemsa Sigma) before the analysis.
as §2
IgE determination in the serum. Total IgE in the serum samples was determined by enzyme-linked immunosorbent assay (Montagnoli C, Fallarino F, Gaziano R, Bozza S, Bellocchio S, Zelante T, Kurup WP, Ptzurra L, Puccetti P, Romani L. Immunity and tolerance to Aspergillus involve functionally distinct regulatory T cells and tryptophan catabolism. J. Immunol. 2006, 176:1712-1723 in the serum samples was measured by enzyme-linked immunosorbent assay).
Treatment with thymosin alpha 1. Tα1 (purchased from Sigma, St. Louis, Mo., USA; product no. T3410; molecular formula C129H215N33O55) and the scrambled peptide were supplied as sterile dried powders. The powders were reconstituted in sterile water (endotoxin levels were <0.03 pg/ml, by means of standard Limulus lysate assay). Tα1 was administered at a dosage of 50 and 200 microgrammes/kg i.p. according to the design reported in tables 1 and 2, both in the ABPA model and in the allergy from OVA. Mice controls received the scrambled peptide. In selected experiments, the mice were treated for comparison with a known agent that could improve the allergic symptomatology: oligodeoxynucleotide, containing non-methylated CpG (CpG) sequences.

[3] = Tα1 200 microgrammes i.p., both prophylaxis and therapy, vs control mice
[4] = FIG. 1A, Tα1 200 microgrammes i.p., both prophylaxis and therapy, vs control mice

thymosin alpha 1 (Ac-SDAAVDTSSEITTKDLKEKKEVVEEAEN; ends and bridges not checked; UniProt P06454 2-29, looked up) [Tα1, thymic peptide found in nature; purchased from Sigma, product no; T3410]
IgE antibodies [1, 3]: drastic reduction
local production of hydroxyproline [1, 3]: drastic reduction
reduction in allergic inflammatory parameters (hydroxyproline, IgE) at lower dosages ([1]; lower dosages (50 microgrammes/kg i.p.)): not at lower dosages
IgE antibodies [2, 4]: drastic reduction
local production of hydroxyproline [2, 4]: drastic reduction
reduction in allergic inflammatory parameters (hydroxyproline, IgE) at lower dosages ([2]; FIG. 1A, lower dosages (50 microgrammes/kg i.p.)): not at lower dosages
efficacy in reducing the allergic inflammation parameters, Tα1 compared with CpG ([2]; FIG. 2, both in prophylaxis and therapy): comparable efficacy
recruitment of monocytes/macrophages (pulmonary) ([2]; FIG. 3): did not have any appreciable effects
recruitment of neutrophils (pulmonary) ([2]; FIG. 3): did not have any appreciable effects
recruitment of eosinophils (pulmonary) ([2]; FIG. 3, both in prophylaxis and in therapy): drastic reduction
hyperplasia of submucose glandular (Globet) cells in pulmonary sections ([2]; FIG. 4, histology (PAS)): decreased hyperplasia
inflammatory infiltrate in pulmonary sections ([2]; FIG. 4, histology (PAS), prophylactic treatment): considerably reduced
